Measured values published in patent publication US20150175599A1, “FAAH Inhibitors” (Ironwood Pharmaceuticals, Inc., priority 2010, published 2015).

Experiments:
FAAH = target: T1, FAAH (Homo sapiens, UniProt O00519); assay: FAAH inhibition, human brain membrane homogenate assay; assay type: biochemical; details: human brain homogenate; average activity; read-out: Human brain Extract FAAH IC50
T1 construct: Reactions were initiated by adding 12.5 μg of brain microsome; tissue ABS, Inc; host or cells: human brain cerebral cortex, membrane/microsome fraction pooled from 3 donors
T1 sequence (O00519 1-579): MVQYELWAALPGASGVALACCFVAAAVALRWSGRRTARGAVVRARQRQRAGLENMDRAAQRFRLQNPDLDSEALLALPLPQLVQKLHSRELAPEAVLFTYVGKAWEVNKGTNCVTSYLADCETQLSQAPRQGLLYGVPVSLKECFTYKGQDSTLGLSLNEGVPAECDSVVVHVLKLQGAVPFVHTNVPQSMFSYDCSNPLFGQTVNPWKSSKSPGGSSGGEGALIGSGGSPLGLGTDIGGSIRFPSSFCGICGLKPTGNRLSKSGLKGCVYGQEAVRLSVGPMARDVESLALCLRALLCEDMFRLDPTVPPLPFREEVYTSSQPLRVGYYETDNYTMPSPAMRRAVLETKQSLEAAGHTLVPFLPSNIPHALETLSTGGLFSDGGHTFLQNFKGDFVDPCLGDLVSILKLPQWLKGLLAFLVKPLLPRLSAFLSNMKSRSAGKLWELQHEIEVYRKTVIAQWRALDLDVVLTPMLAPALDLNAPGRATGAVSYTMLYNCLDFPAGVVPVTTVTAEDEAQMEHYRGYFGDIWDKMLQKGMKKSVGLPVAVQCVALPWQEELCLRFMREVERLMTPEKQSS

hERG channel = target: T2, hERG channel (Homo sapiens, UniProt Q12809); assay: hERG channel inhibition, automated patch clamp (IonWorks HT, hERG-CHO); assay type: cell-based; details: CHO cells expressing hERG, 600 s incubation; for inhibition at 600 s, 1 µM: 1 μM compound, read-out: hERG Channel Inhibition % (at 1 μM), vehicle-subtracted values; for inhibition at 600 s, 10 µM: 10 μM compound, read-out: hERG Channel Inhibition % (at 10 μM), vehicle-subtracted values
T2 construct: expressed in transfected cells; host or cells: CHO (hERG-CHO), under Geneticin selection
Description: Human ether-a-gogo-related (hERG) ion channel encodes the inward rectifying voltage gated potassium channel in the heart and has a major role during the repolarization of the cardiac action potential. It is well established that blockade of this ion channel can lead to potentially lethal arrhythmias. hERG pre-clinical safety data is often used by regulatory agencies in elucidate the toxicity profile of certain compositions. The disclosed compounds of Table 1 were tested for their ability to inhibit hERG ion channels.
Media components include F12 Nutrient Mixture (Ham) with GlutaMAX™ (Invitrogen, Cat#31765), Fetal Bovine Serum, Certified (Invitrogen, Cat#16000-044—not heat activated), and Geneticin® Selective Antibiotic (Invitrogen, Cat#10131-027).
One vial of frozen cells, at 1.62×10^6 cells are thawed into a T150 flask (BD Falcon 355001) with 40 mL of pre-warmed complete media. Cells are cultured at 37° C., 5% CO2 for four hours prior to gently changing media. 99% of cells appear attached at this time point.
The flask is media changed at 24 hours post-thaw, the cells are imaged, media changed, and returned to the incubator. At this point, the cells appear healthy and about 25% confluent in the flask. Cells are typically passed 24-48 hours after thaw according to the following intervals and densities below. Cells are incubated at 30° C. for 48 hours prior to assay.
Using an automated patch clamp apparatus (IonWorks^HT), a three pulse protocol was applied by stepping from a holding potential of −80 mV to […] for 2 s, to activate hERG channels. The membrane voltage was then stepped back to −50 mV for 2 s to evoke a tail current prior to returning to the holding potential for 1 s. This sequence was repeated a further two times. This voltage protocol was applied prior to drug (Pre compound) and after 600 s in the presence of drug (Post compound).
The amplitude of the hERG tail current was calculated by measuring the difference between the maximum current on stepping to −50 mV of the third pulse (i.e. peak of the outward hERG tail current) and the current measured immediately prior to activation of any hERG current. This parameter was assessed before (pre tail current amplitude) and after 600 s incubation (post tail current amplitude) in drug. In order to assess the amount of block produced by test compounds, the data was first filtered using the IonWorks™ software to exclude any cells where the seal resistance was less than 50 MOhm. The remaining data was then exported to an excel compatible data file and only currents with tail currents greater than 250 pA were analyzed. The post/pre tail current amplitude ratio for the third pulse was calculated for each drug and control, and presented as percent inhibition.

[1] = Pharmacokinetic study, plasma level 2 hours after oral dosing in rats; assay type: in vivo
Description: Pharmacokinetic studies were conducted to determine absorption and distribution profiles of the disclosed compounds which were orally administered to rats.
Compounds were formulated in a 1% DMA/99% Vitamin E TPGS vehicle. Prepared compounds were dosed via oral gavage (PO). Following the appropriate pretreatment time of 2 hours, rats were anesthetized with isoflurane gas. Blood was collected into tubes containing EDTA via retro-orbital eye bleed. Whole blood was spun in a micro-centrifuge at approximately 13,000 rpm for 5 minutes at room temperature. Separated plasma was subsequently aliquoted into eppendorf tubes. Samples were stored at −80° C. until prepped for analysis.
Plasma samples were thawed and the required amount of plasma for standards, blanks and dilutions were made. The dilutions were prepared before plating. Preparation of crash solution included cold acetonitrile+0.1% formic acid and 25 ng/mL of a FAAH inhibitor used as internal standard. solvent standards of the FAAH inhibitor being studied were preparation at 10, 30, 100, 300, 1000, 3000, 10000, 30000, 100000, and 300000 ng/mL in DMSO. Then a plasma standard curve was generated from the solvent standards (final concentrations of standards in plasma were: 0.1, 0.3, 1, 3, 10, 30, 100, 300, 1000, 3000 ng/mL). 50 μL of each plasma sample/dilution, standard, or blank was transferred into 96-well plates. To each well, 200 μL of cold crash solution was added. The plate was covered and gently vortexed. The plate was centrifuged at 3500 rpm, 4° C. for 10 min. 200 μL of each supernatant was transferred into new plates. The plates were dried under nitrogen in a TurboVap at 55° C. The sample in each well was re-suspended with 100 μL of 30% acetonitrile, covered and vortexed gently. The well solutions were analyzed by the LC/MS/MS conditions and specifications below.
HPLC column was a Clipeus C8, 2.1×30 mm, 5 μm, with Basic 8 guard column using 20 μL injections. Mobile phase used was mobile phase A: 0.1% Formic Acid in water and mobile phase B: 0.1% Formic Acid in 85:10:5 ACN:IPA:H2O. The flow rate for the run was 0.5 mL/min and the gradient for the 4 minute total run time was: 0.0 minutes

T2 sequence (Q12809 whole entry): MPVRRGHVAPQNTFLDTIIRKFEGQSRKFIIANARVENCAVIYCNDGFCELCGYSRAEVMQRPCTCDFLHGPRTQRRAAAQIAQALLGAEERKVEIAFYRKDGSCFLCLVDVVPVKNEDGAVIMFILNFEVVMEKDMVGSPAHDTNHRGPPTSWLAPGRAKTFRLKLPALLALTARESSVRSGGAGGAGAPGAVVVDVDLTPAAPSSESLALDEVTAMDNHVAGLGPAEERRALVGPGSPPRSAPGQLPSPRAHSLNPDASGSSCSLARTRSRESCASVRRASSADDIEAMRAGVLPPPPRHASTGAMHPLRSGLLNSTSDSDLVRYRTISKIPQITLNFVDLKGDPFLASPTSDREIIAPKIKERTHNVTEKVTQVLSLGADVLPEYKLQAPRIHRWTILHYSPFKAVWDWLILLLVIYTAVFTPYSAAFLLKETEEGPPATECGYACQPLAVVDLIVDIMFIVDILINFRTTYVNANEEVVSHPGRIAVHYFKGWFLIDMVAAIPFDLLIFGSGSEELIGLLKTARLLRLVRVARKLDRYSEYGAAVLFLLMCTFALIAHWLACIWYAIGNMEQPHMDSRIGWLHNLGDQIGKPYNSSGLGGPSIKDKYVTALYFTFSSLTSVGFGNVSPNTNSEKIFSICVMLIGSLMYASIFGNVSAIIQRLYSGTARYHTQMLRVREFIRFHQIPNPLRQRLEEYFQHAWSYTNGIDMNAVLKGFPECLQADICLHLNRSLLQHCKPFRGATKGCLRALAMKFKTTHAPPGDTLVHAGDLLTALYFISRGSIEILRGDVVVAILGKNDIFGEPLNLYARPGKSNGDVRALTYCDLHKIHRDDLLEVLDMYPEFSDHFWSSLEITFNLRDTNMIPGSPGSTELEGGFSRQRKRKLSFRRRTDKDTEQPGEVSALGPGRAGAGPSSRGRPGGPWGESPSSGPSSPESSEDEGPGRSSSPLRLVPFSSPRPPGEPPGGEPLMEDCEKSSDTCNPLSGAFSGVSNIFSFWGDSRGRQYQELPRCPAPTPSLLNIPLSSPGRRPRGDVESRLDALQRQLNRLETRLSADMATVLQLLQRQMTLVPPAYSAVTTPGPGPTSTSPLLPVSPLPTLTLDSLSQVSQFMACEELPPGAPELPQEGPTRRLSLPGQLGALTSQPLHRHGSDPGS

| Compound | IC50 (FAAH) [nM] | inhibition at 600 s, 1 µM (hERG channel) [%] | inhibition at 600 s, 10 µM (hERG channel) [%] | 2 hr plasma level-ng/mL (rat, 10 mg/kg PO, 2 hr) [1] |
| --- | --- | --- | --- | --- |
| COc1cc(NC(=O)C(=O)c2c(C)n(Cc3ccc(Cl)cc3)c3ccc(OC(C)=O)cc23)ccn1 [Compound 1, 1-(4-chlorobenzyl)-3-(2-(2-methoxypyridin-4-ylamino)-2-oxoacetyl)-2-methyl-1H-indol-5-yl acetate] | < 100 | < 25 | < 25 | A (A = Less than 10 nM) |
| COc1cc(NC(=O)C(=O)c2c(C)n(Cc3ccc(Cl)cc3)c3ccc(O)cc23)ccn1 [Compound 2, 2-(1-(4-chlorobenzyl)-5-hydroxy-2-methyl-1H-indol-3-yl)-N-(2-methoxypyridin-4-yl)-2-oxoacetamide] | < 100 | < 25 | < 25 | A (A = Less than 10 nM) |
| COc1cc(NC(=O)C(=O)c2c(C)n(Cc3ccc(Cl)cc3)c3ccc(C(C)=O)cc23)ccn1 [Compound 5, 2-(5-acetyl-1-(4-chlorobenzyl)-2-methyl-1H-indol-3-yl)-N-(2-methoxypyridin-4-yl)-2-oxoacetamide] | < 100 | < 25 | 25 to 50 | C (C = between 100 nM and 1000 nM) |
| COc1cc(NC(=O)C(=O)c2c(C)n(Cc3ccc(Cl)cc3)c3ccc(CO)cc23)ccn1 [Compound 8, 2-(1-(4-chlorobenzyl)-5-(hydroxymethyl)-2-methyl-1H-indol-3-yl)-N-(2-methoxypyridin-4-yl)-2-oxoacetamide] | < 100 | – | – | C (C = between 100 nM and 1000 nM) |
| CNc1ccc2c(c1)c(C(=O)C(=O)Nc1ccnc(OC)c1)c(C)n2Cc1ccc(Cl)cc1 [Compound 9, 2-(1-(4-chlorobenzyl)-2-methyl-5-(methylamino)-1H-indol-3-yl)-N-(2-methoxypyridin-4-yl)-2-oxoacetamide] | < 100 | < 25 | < 25 | C (C = between 100 nM and 1000 nM) |
| COc1cc(NC(=O)C(=O)c2c(C)n(Cc3ccc(Cl)cc3)c3ccc(COC(C)=O)cc23)ccn1 [Compound 10, (1-(4-chlorobenzyl)-3-(2-(2-methoxypyridin-4-ylamino)-2-oxoacetyl)-2-methyl-1H-indol-5-yl)methyl acetate] | < 100 | – | – | C (C = between 100 nM and 1000 nM) |
| COCc1ccc2c(c1)c(C(=O)C(=O)Nc1ccnc(OC)c1)c(C)n2Cc1ccc(Cl)cc1 [Compound 11, 2-(1-(4-chlorobenzyl)-5-(methoxymethyl)-2-methyl-1H-indol-3-yl)-N-(2-methoxypyridin-4-yl)-2-oxoacetamide] | < 100 | < 25 | 25 to 50 | C (C = between 100 nM and 1000 nM) |
| COc1ccc2c(c1)c(C(=O)C(=O)Nc1ccnc(OC)c1)c(C)n2Cc1cnc(Cl)cn1 [Compound 12, 2-(1-((5-chloropyrazin-2-yl)methyl)-5-methoxy-2-methyl-1H-indol-3-yl)-N-(2-methoxypyridin-4-yl)-2-oxoacetamide] | < 100 | < 25 | < 25 | C (C = between 100 nM and 1000 nM) |
| COc1cc(NC(=O)C(=O)c2c(C)n(Cc3ncc(Cl)cc3Cl)c3cc(F)c(OC)cc23)ccn1 [Compound 13, 2-(1-((3,5-dichloropyridin-2-yl)methyl)-6-fluoro-5-methoxy-2-methyl-1H-indol-3-yl)-N-(2-methoxypyridin-4-yl)-2-oxoacetamide] | < 100 | < 25 | < 25 | C (C = between 100 nM and 1000 nM) |
| COc1cnc2c(c1)c(C(=O)C(=O)Nc1ccnc(OC)c1)c(C)n2Cc1ncc(Cl)cc1Cl [Compound 29, 2-(1-((3,5-dichloropyridin-2-yl)methyl)-5-methoxy-2-methyl-1H-pyrrolo[2,3-b]pyridin-3-yl)-N-(2-methoxypyridin-4-yl)-2-oxoacetamide] | < 100 | – | – | D (D = greater than 1000 nM) |
| COc1cc(NC(=O)C(=O)c2c(C)n(Cc3ccc(Cl)cn3)c3ccc(N(C)C)cc23)ccn1 [Compound 66, 2-(1-((5-chloropyridin-2-yl)methyl)-5-(dimethylamino)-2-methyl-1H-indol-3-yl)-N-(2-methoxypyridin-4-yl)-2-oxoacetamide] | < 100 | – | – | D (D = greater than 1000 nM) |
| COc1cc(NC(=O)C(=O)c2c(C)n(Cc3ccc(Cl)cc3)c3cc(C)c(OC)cc23)ccn1 [Compound 74, 2-(1-(4-chlorobenzyl)-5-methoxy-2,6-dimethyl-1H-indol-3-yl)-N-(2-methoxypyridin-4-yl)-2-oxoacetamide] | < 100 | – | – | C (C = between 100 nM and 1000 nM) |
| COc1cc(NC(=O)C(=O)c2c(C)n(Cc3ccc(Cl)cn3)c3ncc(C)cc23)ccn1 [Compound 75, (1-((5-chloropyridin-2-yl)methyl)-2,5-dimethyl-1H-pyrrolo[2,3-b]pyridin-3-yl)-N-(2-methoxypyridin-4-yl)-2-oxoacetamide] | < 100 | – | – | D (D = greater than 1000 nM) |
| COc1cc(NC(=O)C(=O)c2c(C)n(Cc3ccc(Cl)cc3)c3ncc(C)cc23)ccn1 [Compound 76, 2-(1-(4-chlorobenzyl)-2,5-dimethyl-1H-pyrrolo[2,3-b]pyridin-3-yl)-N-(2-methoxypyridin-4-yl)-2-oxoacetamide] | < 100 | – | – | C (C = between 100 nM and 1000 nM) |
